Reference: US20070027205A1, “Diarylmethyl derivatives as potassium channel modulators” (priority 2003, published 2007)

Target: T1, human intermediate-conductance Ca2+-activated K+ channels (hIK channels) (Homo sapiens, UniProt O15554)
T1 construct: expressed in transfected cells
Experiment: Block of IK channels, whole-cell patch-clamp
Format: cell-based
Conditions: hIK cloned from human placenta, stably expressed in HEK293 cells; Ki = koff/kon from kinetics of the block
Method: In this example the ability of the compounds of the invention to inhibit human intermediate-conductance Ca^2+-activated K^+ channels (hIK channels) is examined.
hIK channels have been cloned from human placenta and stably expressed in HEK293 cells. The ionic current through the channels is recorded in the whole-cell mode of the patch-clamp technique.
A Ki value is calculated from the kinetics of the block.
The inhibition of the current is assumed to occur by a simple drug (D)−receptor (R) interaction after the following scheme: [drawing 3]
This is a simple bimolecular reaction, which integrated under non-equalibrium conditions are described by the equation: It=I0*(1−(C/C+(koff/kon)))*(1−exp(−(C* kon+koff)*t))) • wherein, • It=current at time t in nA • koff=off-rate in s^−1 • I0=basal current in nA • kon=on-rate in M^−1s^−1 • C=drug concentration in μM
By using the equation above, a fit to the time-course of the decrease in current yields the values koff and kon. Ki equals the ratio koff/kon, and Ki is the test value to be reported. At t=∞ (equalibrium) the equation simplifies to the Michaelis-Menten equation with Ki=IC50.

| Ki [nM] | Compound |
| --- | --- |
| 2200 | N#CC(CC(=O)O)(c1ccc(F)cc1)c1ccc(F)cc1 [Compound 2, 3-Cyano-3,3-bis-(4-fluoro-phenyl)-propionic acid] |
| 1400 | CCOC(=O)CCC(C#N)(c1ccc(F)cc1)c1ccc(F)cc1 [Compound 4, Ethyl 4-cyano-4,4-bis-(4-fluoro-phenyl) butyrate] |
| 530 | NC(CSC(c1ccc(F)cc1)(c1ccc(F)cc1)c1ccccc1F)=NO [Compound 6, 2-[(2-Fluoro-phenyl)-bis-(4-fluoro-phenyl)-methanesulfanyl]-N-hydroxy acetamidine] |
| 65 | N#CC(Cc1ccccn1)(c1ccc(F)cc1)c1ccc([N+](=O)[O-])c(C(F)(F)F)c1 (stereo not shown) [Compound 8, 2-(4Fluoro-phenyl)-2-(4-nitro-3-trifluoromethyl-phenyl)-3-pyridin-2-yl-propionitrile] |
